Test results published in PMC11684019, “Unveiling the Antimycobacterial Potential of Novel 4-Alkoxyquinolines: Insights into Selectivity, Mechanism of Action, and In Vivo Exposure” (Journal of Medicinal Chemistry, 2024).
Converted amounts (≈) assume the structure as drawn. “And” between values parts separate entries of the source, which are not always exact repeats. Identical values can stand only once. Like-named read-outs stand apart in the source and are kept apart here. Marks after values point to notes of the source that are not given here.

What was measured:
[1] = system: Acinetobacter baumannii multidrug-resistant clinical isolate; type: cell-based; settings: tested at 20 μM, 24 h
Vero cells [2] = settings: read-out: CC50 Vero; Neutral Red method, 72 h
[3] = system: M. tuberculosis H37Rv strain in murine macrophage RAW 264.7 cells; type: cell-based, Mycobacterium tuberculosis; settings: for Reduction of Mtb load compared to the untreated group: 5 days
[4] = rat liver microsomes, 2 μM, NADPH, 37 °C
Vero cells [5] = settings: read-out: CC50 Vero; MTT method, 72 h
HepG2 cells [6] = settings: read-out: CC50 HepG2; MTT method, 72 h
[7] = system: Staphylococcus aureus ATCC 25923; type: cell-based; settings: ATCC 25923, tested at 20 μM, 24 h
[8] = 10 μM, pH 7.4, 5 h, 25 °C
[9] = mice; for Plasma concentration: 300 mg/kg single dose gavage
[10] = system: M. tuberculosis H37Rv strain; test: microbe, parasite or virus in culture; type: cell-based, Mycobacterium tuberculosis; settings: M. tuberculosis H37Rv, resazurin-based assay
[11] = system: M. tuberculosis strain PT12 (MDR clinical isolate); type: cell-based, Mycobacterium tuberculosis
[12] = system: M. tuberculosis strain PT20 (MDR clinical isolate); type: cell-based, Mycobacterium tuberculosis
HepG2 cells [13] = settings: read-out: CC50 HepG2; Neutral Red method, 72 h
[14] = system: Klebsiella pneumoniae multidrug-resistant clinical isolate; type: cell-based; settings: tested at 20 μM, 24 h
[15] = Aqueous solubility (UHPLC-DAD); settings: 25 °C, 4 h
[16] = 24 h, 10 μM
Method: The assessment of chemical stability at different pH levels provides insights into the quantity or concentration of the test compound that remains unchanged and, consequently, available for absorption. […] Following this incubation period, the test compounds were quantified using HPLC-MS/MS, with alprenolol serving as the analytical control. This experiment was conducted by CEMSA (São Paulo, SP, Brazil).

[17] = system: Escherichia coli ATCC 25922; type: cell-based; settings: ATCC 25922, tested at 20 μM, 24 h
[18] = system: M. tuberculosis strain PT2 (MDR clinical isolate); type: cell-based, Mycobacterium tuberculosis

CCc1ccc(NCCCOc2cc(C)nc3ccc(Br)cc23)cc1 [8t, N-(3-((6-bromo-2-methylquinolin-4-yl)oxy)propyl)-4-ethylaniline]
MIC A. baumannii [1]: MIC A. baumannii = > 20 μM
CC50 (Vero cells [2]): 11.8 µM
Kind of effect on intracellular growth of M. tuberculosis H37Rv [3]: bacteriostatic effect
Log10 CFU/well (Mean ± SD) [3]: 3.90 ± 0.30 ^d Log10 CFU/well and 4.10 ± 0.02 ^d Log10 CFU/well
Reduction of Mtb load compared to the untreated group ([3]; 1 μM): 1.27 log10 CFU
Reduction of Mtb load compared to the untreated group ([3]; 5 μM): 1.07 log10 CFU
Clint (intrinsic clearance) [4]: Clint ^f = 58 mL/min/kg
t1/2 (half-life) [4]: t1/2 ^g = 7.0 min
CC50 (Vero cells [5]): > 20 µM
CC50 (HepG2 cells [6]): > 20 µM
MIC S. aureus [7]: MIC S. aureus = > 20 μM
PAMPA permeability [8]: PAMPA = 0.2 × 10^−6 cm/s
Ke (elimination rate constant) ([9]; 300 mg/kg gavage): 0.16 h^–1
Plasma concentrations for a span of up to 8 h ([9]; 300 mg/kg gavage): exceeding 7.49 μM
Tmax ([9]; 300 mg/kg gavage): 1 h
t1/2 (elimination half-life) ([9]; 300 mg/kg gavage): 4.3 ± 1.2 h
Cmax ([9]; 300 mg/kg gavage, noncompartmental analysis): 32.1 ± 3.9 µM
AUC0-t ([9]; 300 mg/kg gavage, time 0 to 8 h): 127.5 ± 5.7 µM·h
Plasma concentration ([9]; 0.5 h): 11.10 ± 1.24 µM
Plasma concentration ([9]; 0.75 h): 15.73 ± 1.61 µM
Plasma concentration ([9]; 1 h): 32.15 ± 3.94 µM
Plasma concentration ([9]; 4 h): 13.45 ± 2.01 µM
Plasma concentration ([9]; 8 h, 300 mg/kg): 9.80 µM and 9.80 ± 2.13 µM
MIC [10]: 0.05 µM (≈ 0.02 µg/mL)
MIC PT12 [11]: <0.05 µM
MIC PT20 [12]: <0.05 µM
CC50 (HepG2 cells [13]): > 20 µM
MIC K. pneumoniae [14]: MIC K. pneumoniae = > 20 μM
Solubility pH 1.2 ([15]; 0.1 M HCl solution): >2,500 μM
Solubility pH 9.1 ([15]; 0.1 M NH4HCO3 solution): 30.22 μM
Solubility pH 7.4 ([15]; PBS): 35.3 μM
Chemical Stability pH 1.2 (percentage of remaining compound) ([16]; 0.1 M HCl, 37 °C): Chemical Stability ^b pH 1.2 ^c = 100%
Chemical Stability pH 9.1 (percentage of remaining compound) ([16]; 0.1 M NH4HCO3, 37 °C): Chemical Stability ^b pH 9.1 ^e = 6.0%
Chemical Stability pH 7.4 (percentage of remaining compound) ([16]; PBS, 37 °C): Chemical Stability ^b pH 7.4 ^d = 5.3%
MIC E. coli [17]: MIC E. coli = > 20 μM
MIC PT2 [18]: <0.05 µM
